Data on 25 compounds can be found in US9018214B2, “Bicyclic heterocycle compounds and their uses in therapy” (Astex Therapeutics Limited, priority 2011, dated 2015).

In experiment [1] the target is BIR3 domain of human XIAP (residues 252-350) (Homo sapiens (Human), UniProt P98170). Nature of the experiment: XIAP in vitro competitive displacement binding assay (fluorescence polarization). To be noted: for IC50: read-out: IC50 or PI Xiap: IC50. For orientation: In fluorescence polarisation assays a small probe gives low polarisation when free and higher when bound to something large.

In experiment [2] the target is BIR3 domain of human cIAP-1 (residues 267-363) (Homo sapiens (Human), UniProt Q13490). Nature of the experiment: cIAP-1 in vitro competitive displacement binding assay (fluorescence polarization; Probe A AVPIK(5&6FAM)-amide or Probe B AbuRPFK(5&6FAM)-amide).
Setting [3] is: 3 h, Probe A, read-out: IC50 or PI cIAP1: PI.
Setting [4] is: 1 h, read-out: IC50 or PI Xiap: PI.
Setting [5] is: Probe A AVPIK(5&6FAM)-amide, read-out: IC50 or PI cIAP1: IC50.
[6] abbreviates: read-out: IC50 or PI cIAP1: IC50.
Where [7] appears, read: Probe B AbuRPFK(5&6FAM)-amide, read-out: IC50 or PI cIAP1: IC50.

Where a name gives a salt, the structure may show the parent alone. Read-outs that look alike come from different tables or passages of the source.

In the case of `C[C@@H]1CN(CC(=O)N2CCc3cnccc32)CCN1` [Example 14, 1-(2,3-Dihydro-pyrrolo[3,2-c]pyridin-1-yl)-2-((R)-3-methyl-piperazin-1-yl)-ethanone], in experiment [1] (1 h, @ 99 μM, read-out: IC50 or PI Xiap: PI), the inhibition at 99 µM came to 53%. In experiment [2] (setting [3]), the inhibition at 160 µM stood at 46%.
Usually IC50 stands for the concentration that gives 50% inhibition. Consider `C[C@@H]1CN(CC(=O)N2CC(C)(C)c3ccccc32)CCN1` [Example 21, 1-(3,3-Dimethyl-2,3-dihydro-indol-1-yl)-2-((R)-3-methyl-piperazin-1-yl)-ethanone], for which the inhibition at 160 µM in experiment [1] (setting [4]) was found to be 45%. In experiment [2] (setting [5]), the IC50 is 27000 nM.
As to `C[C@@H]1CN(CC(=O)N2CC(C)(C)c3ncc(C(=O)c4ccccc4)cc32)[C@@H](CN2CCCC2=O)CN1` [Example 187, 1-{[(2R,5R)-1-(2-{6-Benzoyl-3,3-dimethyl-1H,2H,3H-pyrrolo[3,2-b]pyridin-1-yl}-2-oxoethyl)-5-methylpiperazin-2-yl]methyl}pyrrolidin-2-one dihydrochloride], the values for the 50% inhibitory concentration (IC50) in experiment [1] and in experiment [2] (setting [6]) were 110 nM and 32 nM, respectively.
As for `C[C@@H]1CN(CC(=O)N2CC3(CCCC3)c3ccc(Cl)cc32)CCN1` [Example 50, 1-{6′-Chloro-1′,2′-dihydrospiro[cyclopentane-1,3′-indole]-1′-yl}-2-[(3R)-3-methyl-piperazin-1-yl]ethan-1-one hydrochloride salt], the IC50 in experiment [1] amounted to 14000 nM; in experiment [2] (setting [7]) it was 15000 nM.
`COC[C@H]1CN[C@H](C)CN1CC(=O)N1CC(C)(C)c2cnc(N3CCCC3=O)cc21` [Example 102, 1-(1-{2-[(2R,5R)-2-(Methoxymethyl)-5-methylpiperazin-1-yl]acetyl}-3,3-dimethyl-1H,2H,3H-pyrrolo[3,2-c]pyridin-6-yl)pyrrolidin-2-one, hydrochloride salt]: the concentration for half-maximal inhibition (IC50) in experiment [1] was 3200 nM; in experiment [2] it was below 1000 nM; in experiment [2] (setting [7]) it was 650 nM.
As to `CC[C@H]1CN[C@H](C)CN1CC(=O)N1CC(C)(C)c2cnc(Cn3cccn3)cc21` [Example 95, 1-[3,3-Dimethyl-6-(1H-pyrazol-1-ylmethyl)-1H,2H,3H-pyrrolo[3,2-c]pyridin-1-yl]-2-[(2S,5R)-2-ethyl-5-methylpiperazin-1-yl]ethan-1-one], the 50% inhibitory concentration (IC50) came out at 3100 nM in experiment [1] and 680 nM in experiment [2] (setting [7]).
As to `C[C@@H]1CN(CC(=O)N2C[C@@](C)(c3ccccc3)c3ccc(C#N)cc32)[C@@H](Cn2cccn2)CN1` [Example 154, (3S)-3-Methyl-1-{2-[(2R,5R)-5-methyl-2-(1H-pyrazol-1-ylmethyl)piperazin-1-yl]acetyl}-3-phenyl-2,3-dihydro-1H-indole-6-carbonitrile], the figures for the half-maximal inhibitory concentration (IC50) in experiment [1] and in experiment [2] (setting [7]) were 130 nM and 170 nM, respectively.
As to `C[C@@H]1CN(CC(=O)N2CCc3ccc(NS(C)(=O)=O)cc32)CCN1` [Example 8, N-{1-[2-((R)-3-Methyl-piperazin-1-yl)-acetyl]-2,3-dihydro-1H-indol-6-yl}-methane-sulfonamide], the figures for the inhibition at 160 µM in experiment [1] (setting [4]) and in experiment [2] (setting [3]) were 59% and 46%, respectively.
With `COC[C@H]1CN[C@H](C)CN1CC(=O)N1CC(C)(C)c2cnc(N(C)c3ccccc3)cc21` [Example 84, 1-[3,3-Dimethyl-6-(methyl-phenyl-amino)-2,3-dihydro-pyrrolo[3,2-c]pyridin-1-yl]-2-((2R,5R)-2-methoxymethyl-5-methyl-piperazin-1-yl)-ethanone hydrochloride salt], the IC50 is 8800 nM in experiment [1], below 10000 nM in experiment [2] and 1300 nM in experiment [2] (setting [7]).
For the compound `C[C@@H]1CN(CC(=O)N2CCc3cccnc32)CCN1` [Example 36, 1-(2,3-Dihydro-pyrrolo[2,3-b]pyridin-1-yl)-2-((R)-3-methyl-piperazin-1-yl)-ethanone dihydrochloride salt], the IC50 in experiment [1] is 240000 nM. In addition, the inhibition at 500 µM in experiment [2] (3 h, read-out: IC50 or PI cIAP1: PI) is 56%.
For the compound `C[C@@H]1CN(CC(=O)N2CCc3ccc(S(=O)(=O)N4CCCC4)cc32)CCN1` [Example 37, 2-((R)-3-Methyl-piperazin-1-yl)-1-[6-(pyrrolidine-1-sulfonyl)-2,3-dihydro-indol-1-yl]-ethanone hydrochloride salt], the figures for the half-inhibitory concentration (IC50) in experiment [1] and in experiment [2] (setting [5]) were 1800 nM and 23000 nM, respectively.
For `CNC(=O)[C@H]1CN[C@H](C)CN1CC(=O)N1CC(C)(C)c2ccc(Cl)cc21` [Example 54, (2R,5R)-1-[2-(6-Chloro-3,3-dimethyl-2,3-dihydro-indol-1-yl)-2-oxo-ethyl]-5-methyl-piperazine-2-carboxylic acid methylamide hydrochloride salt], the IC50 in experiment [1] was 1800 nM; in experiment [2] (setting [7]), 2100 nM.
As to `COC[C@H]1CN[C@H](C)CN1CC(=O)N1CC(C)(C)c2ccc(-c3nnn[nH]3)cc21` [Example 258, 1-[3,3-Dimethyl-6-(1H-tetrazol-5-yl)-2,3-dihydro-indol-1-yl]-2-((2R,5R)-2-methoxymethyl-5-methyl-piperazin-1-yl)-ethanone hydrochloride], the inhibition at 10 µM in experiment [1] (1 h, @ 10 μM, read-out: IC50 or PI Xiap: PI) turned out to be 58%. For the same compound, the inhibition at 30 µM in experiment [2] (3 h, Probe B, @ 30 μM, read-out: IC50 or PI cIAP1: PI) came to 37%.
For `CCC1(C)CN(C(=O)CN2C[C@@H](C)NC[C@@H]2COC)c2cc(Cl)ccc21` (stereo partly drawn) [Example 123, 1-(6-Chloro-3-ethyl-3-methyl-2,3-dihydro-1H-indol-1-yl)-2-[(2R,5R)-2-(methoxymethyl)-5-methylpiperazin-1-yl]ethan-1-one hydrochloride], the IC50 in experiment [1] was 1300 nM; in experiment [2] (setting [7]), 520 nM.
As for `COC(=O)c1ccc2c(c1)N(C(=O)CN1CCN[C@H](C)C1)CC2` [Example 15, 1-[2-((R)-3-Methyl-piperazin-1-yl)-acetyl]-2,3-dihydro-1H-indole-6-carboxylic acid methyl ester], the 50% inhibitory concentration (IC50) in experiment [1] is 19000 nM; in experiment [2], below 10000 nM; in experiment [2] (setting [6]), 6800 nM.
Take `COC[C@H]1CN[C@H](C)CN1CC(=O)N1CC(C)(C(=O)OC)c2ccc(Br)cc21` (stereo partly drawn) [Example 129, Methyl 6-bromo-1-{2-[(2R,5R)-2-(methoxymethyl)-5-methylpiperazin-1-yl]acetyl}-3-methyl-2,3-dihydro-1H-indole-3-carboxylate hydrochloride]: the IC50 is 1300 nM in experiment [1] and 480 nM in experiment [2] (setting [7]).
Turning to `C[C@@H]1CN(CC(=O)N2CC3(CCC3)c3ccc(Cl)cc32)CCN1` [Example 55, 1-{6′-Chloro-1′,2′-dihydrospiro[cyclobutane-1,3′-indole]-1′-yl}-2-[(3R)-3-methyl-piperazin-1-yl]ethan-1-one hydrochloride salt], the IC50 in experiment [1] came to 12000 nM; in experiment [2] (setting [7]) it was 8200 nM.
Consider `COC[C@H]1CN[C@H](C)CN1CC(=O)N1CC(C)(C)c2cc(C)c(C#N)cc21` [Example 134, 1-{2-[(2R,5R)-2-(Methoxymethyl)-5-methylpiperazin-1-yl]acetyl}-3,3,5-trimethyl-2,3-dihydro-1H-indole-6-carbonitrile], for which the IC50 in experiment [1] came to 780 nM; in experiment [2] (setting [7]), 590 nM.
In the case of `C[C@@H]1CN(CC(=O)N2CCc3ccc(S(=O)(=O)N(C)C)cc32)CCN1` [Example 32, 1-[2-((R)-3-Methyl-piperazin-1-yl)-acetyl]-2,3-dihydro-1H-indole-6-sulfonic acid dimethylamide], the concentration for half-maximal inhibition (IC50) was 2600 nM in experiment [1] and 57000 nM in experiment [2] (setting [5]).
With `COC[C@H]1CN[C@H](C)CN1CC(=O)N1C[C@](C)(COC)c2ccc(Br)cc21` [Example 168, 1-[(3R)-6-Bromo-3-(methoxymethyl)-3-methyl-2,3-dihydro-1H-indol-1-yl]-2-[(2R,5R)-2-(methoxymethyl)-5-methylpiperazin-1-yl]ethan-1-one hydrochloride], the IC50 in experiment [1] was determined as 4000 nM; in experiment [2] (setting [7]), 890 nM.
Turning to `C[C@@H]1CN(CC(=O)N2C[C@](C)(c3ccccc3)c3ccc(C#N)cc32)[C@@H](Cn2cccn2)CN1` [Example 155, (3R)-3-Methyl-1-{2-[(2R,5R)-5-methyl-2-(1H-pyrazol-1-ylmethyl)piperazin-1-yl]acetyl}-3-phenyl-2,3-dihydro-1H-indole-6-carbonitrile], the half-inhibitory concentration (IC50) in experiment [1] worked out at 72 nM; in experiment [2] (setting [7]) it was 260 nM.
As to `C[C@@H]1CN(CC(=O)N2CCc3cc(Br)ccc32)CCN1` [Example 11, 1-(5-Bromo-2,3-dihydro-indol-1-yl)-2-((R)-3-methyl-piperazin-1-yl)-ethanone], the inhibition at 100 µM in experiment [1] (1 h, @ 100 μM, read-out: IC50 or PI Xiap: PI) came to 59%; in experiment [2] (3 h, Probe A, @ 100 μM, read-out: IC50 or PI cIAP1: PI) it was 46%.
As to `C[C@@H]1CN(CC(=O)N2CC3(CCN(C(=O)OCc4ccccc4)CC3)c3ccc(Cl)cc32)CCN1` [Example 23, Benzyl 6-chloro-1-{2-[(3R)-3-methyl-piperazin-1-yl]acetyl}-1,2-dihydro-spiro[indole-3,4′-piperidine]-1′-carboxylate hydrochloride salt], the IC50 in experiment [1] stood at 18000 nM; in experiment [2] (setting [5]), 11000 nM.
For `COC[C@H]1CN[C@H](C)CN1CC(=O)N1CC(C)(C)c2nnc(Cl)cc21` [Example 183, 1-{3-Chloro-7,7-dimethyl-5H,6H,7H-pyrrolo[3,2-c]pyridazin-5-yl}-2-[(2R,5R)-2-(methoxymethyl)-5-methylpiperazin-1-yl]ethan-1-one hydrochloride], the IC50 was 1700 nM in experiment [1], below 1000 nM in experiment [2] and 630 nM in experiment [2] (setting [7]).
With `COC[C@H]1CN[C@H](C)CN1CC(=O)N1CC(C)(C)c2cc(=O)n(CC(C)C)cc21` [Example 73, 6-Isobutyl-1-[2-((2R,5R)-2-methoxy-methyl-5-methyl-piperazin-1-yl)-acetyl]-3,3-dimethyl-1,2,3,6-tetrahydro-pyrrolo[2,3-c]pyridin-5-one hydrochloride salt], the inhibition at 3 µM in experiment [1] (1 h, @ 3 μM, read-out: IC50 or PI Xiap: PI) was determined as 46%. In experiment [2] (3 h, Probe B, @ 1 μM, read-out: IC50 or PI cIAP1: PI), the inhibition at 1 µM amounted to 60%.
